{"source": "patent US8765729B2", "about": "“Cancer therapy” (Aeolus Sciences, Inc., priority 2001, dated 2014)", "key": {"[1]": {"test_system": "bleomycin-induced pulmonary fibrosis", "test": "Bleomycin-induced pulmonary fibrosis in mice", "procedure": "Noninvasive measurement of airway constriction in mice. The baseline resistance in unrestrained, conscious mice was assessed by whole body barometric plethysmography (Buxco Electronics, Troy, N.Y.). The techniques used were similar to those described by Zhu et al, J. Clin. Invest. 103(6):779-88 (1999)). Mice were placed in whole body plethysmographs with fast differential transducers interfaced to a computer. Measurements were made of respiratory rates, tidal volumes and enhanced pause (PENH). Airway constriction was expressed as PENH=[(Te/0.3Tr)−1]×[2Pef/3Pif], where Te=expiratory time (seconds), Tr=relaxation time (seconds), Pef=peak expiratory flow ([…]), and Pif=peak inspiratory flow (ml/second). Animals were allowed to equilibrate in the chambers for 15 minutes and then PENH was calculated over a 5-minute period.\nHydroxyproline measurement. The lungs were dried at 80° C. until a constant weight is obtained. The dried lungs were hydrolyzed under vacuum in a glass vial in 1 ml of 12 N HCl at 120° C. overnight. The samples were lyophilized and assayed for hydroxyproline content using chloramine-T as previously described (Woessner, Arch. Biochem. Biophys. 93:440-447 (1961)). Histopathology. The lungs were fixed in 4% paraformaldehyde for 24 hours and then processed for paraffin embedding. Sections of lung were stained with routine hematoxylin and eosin or with a Masson trichrome stain to assess the degree of fibrosis. The extent of lung injury and fibrosis was graded by four pathologists, blinded as to the treatment group, on a scale of one (no injury) to ten (severe injury/fibrosis). The major criteria examined included interstitial thickening, collagen deposition, type 2 cell hyperplasia, and inflammatory cell infiltration. Statistical Analyses. Data was analyzed using a two-way analysis of variance (ANOVA) or a one-way ANOVA if no significant interactions were found with the two-way ANOVA. Significant differences between groups were assessed using a Newman-Keuls multiple comparison test. Data was analyzed using a computer program, Prizm (Graph Pad Software, San Diego, Calif.). Statistical significance was set at p<0.05. Results Toxicity and Pharmacokinetic Assessment of MnTBAP in Mice\nMice were randomized into 4 groups using a two by two contingency table where two groups received either saline or bleomycin (3.5 U/kg body weight) by intratracheal instillation. Two groups also received either saline or MnTBAP (5 mg/kg body weight) by ip injection twice daily for 14 days.\nBleomycin given by intratracheal instillation produces a marked airway and alveolar fibrotic response (Evans et al, Am Rev. Respir. Dis. 125(1):89-94 (1982)). Mice were assessed for changes in airway function by measuring a marker, enhanced pause (PENH), of airway narrowing using non-invasive whole body barometric plethysmography. […] Lung fibrosis was also assessed by measuring hydroxyproline content in the lung as an index of collagen accumulation.\nOne lung from each mouse was instillation fixed with 4% paraformaldehyde and paraffin embedded for histopathology assessment. Tissue sections were stained with hematoxylin and eosin or with Masson trichrome stain to assess the degree of lung injury/fibrosis."}, "[2]": {"test_system": "rat lung epithelial cells, L2; bovine endothelial cells, CPA-47", "procedure": "(§1) Two non-tumor cell lines (rat lung epithelial cells, L2; bovine endothelial cells, CPA-47) and one tumor cell line (human adenocarcinoma lung cells, A549) were examined for cell proliferation in the presence or absence of manganic porphyrins. Cells were plated in 24 well plates at 10,000 cells per well in the presence of cytotoxic agent (0-10 mM paraquat) for 24-48 hours plus increasing concentrations of MnTBAP, MnMm-4-PyP and their zinc analogs."}, "tumor cells (A549)": {"test_system": "tumor cells (A549)", "procedure": "as §1"}, "mice": {"test_system": "mice", "conditions": "48 hours; for deaths: 4 mice", "description": "Animals and treatments. Balb/c male mice that were 6-8 weeks of age were utilized in these studies (Taconic, Germantown, N.Y.). Mice were acclimated to 22° C. in an environmentally controlled room (12-hr light cycles) at least 6 days prior to treatment. Toxicity studies were employed using a moving average method previously described by Weil (Weil, Biometrics 8:249-263 (1952)). Groups of 4 mice were given MnTBAP (50, 88, 153 and 268 mg/kg, ip) and observed over a 48 hour time period.\nMnTBAP toxicity was assessed using a moving average method that consisted of four geometric dose groups (50, 88, 153 and 268 mg/kg, ip) of 4 mice each over 48 hours."}, "[3]": {"test_system": "L2, CPA-47 and A549 cells", "test": "Cytotoxicity measured by LDH release", "conditions": "100 μM, 48 hours"}, "[4]": {"test": "Pharmacokinetic profile of MnTBAP in mice (serum and lung)", "conditions": "10 mg/kg ip; for Peak Level (Co): two-compartment fit"}}, "note": "Entries after “also recorded” stand apart in the source; their conditions may differ. Where two headings read alike, the source gives them in different places.", "data": [{"smiles": "O=C(O)c1ccc(-c2c3nc(c(-c4ccc(C(=O)O)cc4)c4ccc([n-]4)c(-c4ccc(C(=O)O)cc4)c4nc(c(-c5ccc(C(=O)O)cc5)c5ccc2[n-]5)C=C4)C=C3)cc1.[Mn+3]", "note": "[MnTBAP, manganese (III) tetrakis (4-benzoic acid) porphyrin]", "values": [{"measurement": "decrease in airway constriction (PENH) produced by bleomycin", "setting": "[1]; 5 mg/kg ip twice daily, 14 days", "result": 30, "unit": "%"}, {"measurement": "bleomycin-induced weight loss", "setting": "[1]; FIG. 8, after 5 days to end of study", "result": "attenuates bleomycin-induced weight loss"}, {"measurement": "bleomycin-induced airway constriction and collagen accumulation", "setting": "[1]; FIG. 9, PENH and hydroxyproline, 14 days", "result": "attenuates bleomycin-induced airway constriction and collagen accumulation"}, {"measurement": "bleomycin-induced lung injury by histopathology", "setting": "[1]; FIGS. 10, 11", "result": "attenuates bleomycin-induced pulmonary injury; also recorded: attenuates bleomycin-induced lung injury"}, {"measurement": "PENH marker", "setting": "[1]; MnTBAP alone", "result": "did not affect the PENH marker"}, {"measurement": "hydroxyproline content of the lung", "setting": "[1]; MnTBAP alone", "result": "little effect"}, {"measurement": "lung histology", "setting": "[1]; MnTBAP alone", "result": "no effect on lung histology"}, {"measurement": "pathology score", "setting": "[1]; MnTBAP alone", "result": "no effect on the pathology score"}, {"measurement": "weight loss compared to saline control", "setting": "[1]; MnTBAP alone 5 mg/kg ip twice daily, 14 days", "result": "did not cause weight loss"}, {"measurement": "maximum average loss of initial body weight", "setting": "[1]; bleomycin 3.5 U/kg it plus MnTBAP 5 mg/kg ip twice daily, 14 days, bleomycin alone 20%", "result": 10, "unit": "%"}, {"measurement": "collagen accumulation by trichrome staining", "setting": "[1]; bleomycin plus MnTBAP", "result": "decreased the collagen accumulation"}, {"measurement": "attenuation of bleomycin pathology score", "setting": "[1]; fibrosis score scale 0-8, 14 days", "result": 28, "unit": "%"}, {"measurement": "interstitial thickening and inflammatory responses produced by bleomycin", "setting": "[1]; histopathology, hematoxylin and eosin", "result": "attenuated the marked interstitial thickening and inflammatory responses"}, {"measurement": "decrease in hydroxyproline content caused by bleomycin", "setting": "[1]; lung, 5 mg/kg ip twice daily, 14 days", "result": 23, "unit": "%"}, {"measurement": "attenuation of bleomycin-induced increases in the various indices", "setting": "[1]; physiologic, biochemical and pathology indices", "result": "roughly 30%"}, {"measurement": "cytotoxic effects of paraquat in non-tumor cells", "setting": "[2]", "result": "protected non-tumor cells against the cytotoxic effects of paraquat"}, {"measurement": "paraquat-mediated cytotoxicity in tumor cells", "setting": "tumor cells (A549)", "result": "potentiated paraquat-mediated cytotoxicity"}, {"measurement": "relative efficiency of potentiation of paraquat cytotoxicity", "setting": "tumor cells (A549); A549", "result": "more efficient than MnTM-4-PyP"}, {"measurement": "deaths", "setting": "mice; 50 mg/kg ip", "result": "no deaths"}, {"measurement": "deaths", "setting": "mice; 88 mg/kg ip", "result": 1}, {"measurement": "LD50", "setting": "mice; ip, 95% confidence interval 98-104 mg/kg", "result": 100, "unit": "mg/kg"}, {"measurement": "cytotoxicity (LDH release)", "setting": "[3]", "result": "None of the compounds produced cytotoxicity"}, {"measurement": "accumulation in the lung", "setting": "[4]", "result": "does not accumulate in the lung"}, {"measurement": "Distribution half-life (T1/2)", "setting": "[4]; lung", "result": 0.233, "unit": "h"}, {"measurement": "Elimination half-life (T1/2)", "setting": "[4]; lung", "result": 9.5, "unit": "h"}, {"measurement": "Peak Level (Co)", "setting": "[4]; lung", "result": 80, "unit": "μg/g protein"}, {"measurement": "Distribution half-life (T1/2)", "setting": "[4]; serum", "result": 0.45, "unit": "h"}, {"measurement": "Elimination half-life (T1/2)", "setting": "[4]; serum", "result": 9.5, "unit": "h"}, {"measurement": "Peak Level (Co)", "setting": "[4]; serum", "result": 42, "unit": "mg/L"}]}]}
